Results: ChEMBL document CHEMBL4507268 (2021)

Key:
Details in all cases: Compound concentration 1000.0 nM
[1] = biological target: T1, Serine/threonine-protein kinase BRSK2 (Homo sapiens) (UniProt Q8IWQ3)
T1 sequence (whole entry): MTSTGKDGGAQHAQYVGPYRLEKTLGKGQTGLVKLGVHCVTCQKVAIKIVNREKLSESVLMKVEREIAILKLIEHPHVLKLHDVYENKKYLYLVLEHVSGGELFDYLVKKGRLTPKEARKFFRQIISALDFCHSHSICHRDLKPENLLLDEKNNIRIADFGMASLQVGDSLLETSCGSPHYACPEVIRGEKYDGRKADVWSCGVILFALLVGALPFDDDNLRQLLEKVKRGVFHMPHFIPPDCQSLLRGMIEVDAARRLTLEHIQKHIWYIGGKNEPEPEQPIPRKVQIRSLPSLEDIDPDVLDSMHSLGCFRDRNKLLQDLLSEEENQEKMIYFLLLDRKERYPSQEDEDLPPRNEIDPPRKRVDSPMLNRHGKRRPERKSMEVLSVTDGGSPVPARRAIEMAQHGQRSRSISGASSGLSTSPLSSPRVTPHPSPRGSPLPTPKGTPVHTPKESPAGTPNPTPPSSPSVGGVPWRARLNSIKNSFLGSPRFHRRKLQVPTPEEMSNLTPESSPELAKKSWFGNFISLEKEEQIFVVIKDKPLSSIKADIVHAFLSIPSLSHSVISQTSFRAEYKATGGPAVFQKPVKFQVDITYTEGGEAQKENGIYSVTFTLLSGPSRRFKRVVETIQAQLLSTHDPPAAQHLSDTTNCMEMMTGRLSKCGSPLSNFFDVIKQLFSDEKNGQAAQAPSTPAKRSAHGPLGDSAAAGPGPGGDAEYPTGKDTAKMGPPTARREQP

[2] = biological target: Cyclin-dependent kinase 13 (Homo sapiens) (UniProt Q14004)
[3] = tested on: Fibroblast growth factor receptor 3 (Homo sapiens), P22607 [G697C]
[4] = biological target: T2, Tyrosine-protein kinase Mer (Homo sapiens) (UniProt Q12866)
T2 sequence (whole entry): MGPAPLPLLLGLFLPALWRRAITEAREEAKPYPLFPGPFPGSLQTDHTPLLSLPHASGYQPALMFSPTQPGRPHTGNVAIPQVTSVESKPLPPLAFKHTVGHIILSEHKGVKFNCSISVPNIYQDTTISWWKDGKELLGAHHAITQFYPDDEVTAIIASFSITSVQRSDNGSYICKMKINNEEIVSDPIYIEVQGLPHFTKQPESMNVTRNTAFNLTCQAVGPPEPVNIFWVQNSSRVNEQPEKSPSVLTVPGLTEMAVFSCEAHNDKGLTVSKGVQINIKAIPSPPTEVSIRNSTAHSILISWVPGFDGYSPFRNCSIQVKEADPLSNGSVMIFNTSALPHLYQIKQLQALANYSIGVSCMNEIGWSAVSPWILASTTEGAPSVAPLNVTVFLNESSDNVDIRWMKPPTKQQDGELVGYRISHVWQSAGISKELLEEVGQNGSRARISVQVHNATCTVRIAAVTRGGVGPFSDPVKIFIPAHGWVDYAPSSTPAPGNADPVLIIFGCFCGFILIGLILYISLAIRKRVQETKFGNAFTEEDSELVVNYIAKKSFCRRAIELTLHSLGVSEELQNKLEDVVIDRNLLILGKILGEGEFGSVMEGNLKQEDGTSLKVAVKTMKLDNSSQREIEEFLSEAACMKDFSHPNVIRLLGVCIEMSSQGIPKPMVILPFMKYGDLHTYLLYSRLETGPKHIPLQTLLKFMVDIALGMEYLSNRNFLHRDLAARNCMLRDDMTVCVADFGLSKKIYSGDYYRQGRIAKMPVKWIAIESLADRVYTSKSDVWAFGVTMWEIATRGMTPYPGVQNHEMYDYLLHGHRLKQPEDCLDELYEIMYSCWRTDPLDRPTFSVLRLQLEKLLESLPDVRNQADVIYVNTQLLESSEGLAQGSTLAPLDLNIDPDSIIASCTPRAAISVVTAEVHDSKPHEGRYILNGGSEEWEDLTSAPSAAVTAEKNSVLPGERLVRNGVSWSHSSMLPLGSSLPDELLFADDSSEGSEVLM

[5] = biological target: T3, Serine/threonine-protein kinase Nek1 (Homo sapiens) (UniProt Q96PY6)
T3 sequence (whole entry): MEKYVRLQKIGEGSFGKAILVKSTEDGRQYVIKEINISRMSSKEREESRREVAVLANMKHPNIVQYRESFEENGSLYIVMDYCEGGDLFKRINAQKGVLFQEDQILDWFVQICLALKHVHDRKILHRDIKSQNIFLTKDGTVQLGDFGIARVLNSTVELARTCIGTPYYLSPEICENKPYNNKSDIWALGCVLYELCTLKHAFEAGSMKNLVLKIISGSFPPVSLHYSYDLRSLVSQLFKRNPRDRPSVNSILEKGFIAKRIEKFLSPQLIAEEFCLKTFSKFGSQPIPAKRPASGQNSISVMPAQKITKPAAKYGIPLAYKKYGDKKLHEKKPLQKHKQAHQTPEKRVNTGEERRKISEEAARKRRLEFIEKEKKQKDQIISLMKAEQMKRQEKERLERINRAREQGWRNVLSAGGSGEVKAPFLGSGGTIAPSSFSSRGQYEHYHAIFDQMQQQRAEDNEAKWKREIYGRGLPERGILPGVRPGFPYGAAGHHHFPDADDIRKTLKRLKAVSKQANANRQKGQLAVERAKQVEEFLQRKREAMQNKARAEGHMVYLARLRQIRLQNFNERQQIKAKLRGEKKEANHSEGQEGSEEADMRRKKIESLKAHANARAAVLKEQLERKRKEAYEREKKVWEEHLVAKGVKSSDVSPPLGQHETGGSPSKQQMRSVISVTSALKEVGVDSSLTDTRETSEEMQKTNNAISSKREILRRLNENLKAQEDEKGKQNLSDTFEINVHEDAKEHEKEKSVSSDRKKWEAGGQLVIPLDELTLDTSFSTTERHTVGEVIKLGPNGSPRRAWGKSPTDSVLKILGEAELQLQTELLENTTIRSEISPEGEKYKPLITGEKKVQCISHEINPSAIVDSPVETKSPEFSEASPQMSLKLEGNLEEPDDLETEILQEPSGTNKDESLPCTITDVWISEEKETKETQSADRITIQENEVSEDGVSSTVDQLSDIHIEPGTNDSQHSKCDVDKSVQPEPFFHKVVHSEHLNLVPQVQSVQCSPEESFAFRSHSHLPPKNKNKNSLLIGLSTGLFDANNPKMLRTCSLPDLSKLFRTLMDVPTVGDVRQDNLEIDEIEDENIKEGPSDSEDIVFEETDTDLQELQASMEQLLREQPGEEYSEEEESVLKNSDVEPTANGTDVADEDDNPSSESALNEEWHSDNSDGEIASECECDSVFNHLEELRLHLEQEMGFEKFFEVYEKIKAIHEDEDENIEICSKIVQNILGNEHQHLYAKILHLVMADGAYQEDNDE

Measured: residual activity

Chain of Cyclin-dependent kinase 13 (Homo sapiens) (Q14004 whole entry, looked up): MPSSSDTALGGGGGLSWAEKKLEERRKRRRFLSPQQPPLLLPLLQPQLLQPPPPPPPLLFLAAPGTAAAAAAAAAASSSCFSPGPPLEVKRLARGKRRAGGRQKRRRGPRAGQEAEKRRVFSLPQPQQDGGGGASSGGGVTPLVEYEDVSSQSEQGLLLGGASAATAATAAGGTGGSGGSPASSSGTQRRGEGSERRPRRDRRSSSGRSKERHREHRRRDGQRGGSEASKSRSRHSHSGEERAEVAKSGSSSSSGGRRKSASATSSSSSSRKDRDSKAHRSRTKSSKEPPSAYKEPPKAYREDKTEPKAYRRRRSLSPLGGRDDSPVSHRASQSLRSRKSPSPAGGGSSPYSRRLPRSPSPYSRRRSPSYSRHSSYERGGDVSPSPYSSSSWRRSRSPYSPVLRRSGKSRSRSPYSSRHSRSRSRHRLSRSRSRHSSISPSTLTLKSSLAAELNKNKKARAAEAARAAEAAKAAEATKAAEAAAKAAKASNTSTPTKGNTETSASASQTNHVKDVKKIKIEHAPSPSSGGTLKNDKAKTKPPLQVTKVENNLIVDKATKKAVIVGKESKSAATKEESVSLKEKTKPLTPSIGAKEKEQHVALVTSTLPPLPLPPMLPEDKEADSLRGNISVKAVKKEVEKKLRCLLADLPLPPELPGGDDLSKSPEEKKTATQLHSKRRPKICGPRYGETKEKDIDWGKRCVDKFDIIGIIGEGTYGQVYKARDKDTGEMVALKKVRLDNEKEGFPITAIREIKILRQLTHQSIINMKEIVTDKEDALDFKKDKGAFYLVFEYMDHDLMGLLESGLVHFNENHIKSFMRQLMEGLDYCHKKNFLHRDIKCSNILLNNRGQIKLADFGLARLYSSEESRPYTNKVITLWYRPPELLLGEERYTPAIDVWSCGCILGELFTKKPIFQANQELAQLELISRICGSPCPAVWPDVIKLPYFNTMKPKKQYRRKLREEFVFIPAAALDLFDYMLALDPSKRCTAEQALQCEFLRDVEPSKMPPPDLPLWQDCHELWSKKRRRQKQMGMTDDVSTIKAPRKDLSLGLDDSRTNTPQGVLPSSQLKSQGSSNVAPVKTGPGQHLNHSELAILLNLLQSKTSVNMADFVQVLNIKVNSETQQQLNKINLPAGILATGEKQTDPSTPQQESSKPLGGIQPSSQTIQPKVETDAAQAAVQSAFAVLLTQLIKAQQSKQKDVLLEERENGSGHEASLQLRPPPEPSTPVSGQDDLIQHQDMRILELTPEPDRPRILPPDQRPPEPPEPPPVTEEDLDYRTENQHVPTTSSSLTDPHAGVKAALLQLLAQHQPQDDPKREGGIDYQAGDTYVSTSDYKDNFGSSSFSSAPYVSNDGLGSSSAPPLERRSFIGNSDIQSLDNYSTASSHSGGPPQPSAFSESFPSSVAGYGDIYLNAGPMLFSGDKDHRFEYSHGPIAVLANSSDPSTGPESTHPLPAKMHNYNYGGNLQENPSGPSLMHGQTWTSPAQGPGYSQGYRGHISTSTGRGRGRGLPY
Chain of Fibroblast growth factor receptor 3 (Homo sapiens), P22607 [G697C] (P22607 whole entry G697C): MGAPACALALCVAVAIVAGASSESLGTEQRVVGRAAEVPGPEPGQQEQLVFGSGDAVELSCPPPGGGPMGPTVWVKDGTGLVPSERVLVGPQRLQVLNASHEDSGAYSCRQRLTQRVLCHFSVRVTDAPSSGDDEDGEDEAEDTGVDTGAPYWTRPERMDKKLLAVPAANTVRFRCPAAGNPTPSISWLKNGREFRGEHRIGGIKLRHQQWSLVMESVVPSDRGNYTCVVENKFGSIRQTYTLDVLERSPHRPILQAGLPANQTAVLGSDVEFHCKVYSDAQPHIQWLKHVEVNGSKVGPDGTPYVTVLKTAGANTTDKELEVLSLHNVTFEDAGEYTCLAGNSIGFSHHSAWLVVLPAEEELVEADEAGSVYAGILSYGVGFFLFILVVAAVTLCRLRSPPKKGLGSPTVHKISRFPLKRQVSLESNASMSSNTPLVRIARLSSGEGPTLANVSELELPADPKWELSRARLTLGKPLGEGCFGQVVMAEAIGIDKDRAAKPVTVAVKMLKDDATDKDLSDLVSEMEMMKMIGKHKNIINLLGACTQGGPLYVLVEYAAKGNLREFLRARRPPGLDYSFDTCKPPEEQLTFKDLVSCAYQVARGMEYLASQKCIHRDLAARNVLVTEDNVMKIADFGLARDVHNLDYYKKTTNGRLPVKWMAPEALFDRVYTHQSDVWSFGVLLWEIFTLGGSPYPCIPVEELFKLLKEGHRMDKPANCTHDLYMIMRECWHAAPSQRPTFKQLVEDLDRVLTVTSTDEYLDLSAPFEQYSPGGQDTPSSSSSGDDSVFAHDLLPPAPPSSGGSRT

Cc1nc(C2CCN(C(=O)c3ccc(OC(F)(F)F)cc3N)CC2)c2ncc(N3CCN(C)CC3)cc2n1 [BAY-693]
inactive: [1] 100% | [2] 88% | [3] 100% | [4] 87% | [5] 97%

CN1CCN(c2cnc3c(C4CCN(C(=O)c5ccc(OC(F)(F)F)cc5N)CC4)ncnc3c2)CC1 [BAY-885]
inactive: [1] 100% | [2] 62% | [3] 100% | [4] 75% | [5] 85%
